Results reported in patent US11285170B2, “Fractionated antimicrobial compositions and use thereof” (priority 2017, dated 2022).
Converted amounts (≈) assume the structure as drawn. Read-outs that look alike come from different tables or passages of the source.

Experiments:
[1] = system: Candida glabrata CG15, VT18; assay: MIC against multiresistant C. glabrata; format: cell-based
Description: (§1) In this example, the efficacy of Examples 1, 10 and 13 were tested against multi-drug resistant microorganisms.
(§2) Bacterial strains tested: Pseudomonas aeruginosa AGR 18 and MR23 multiresistant. Fungal strain: Candida glabrata CG15, VT18 resistant to Amphotericin B and Voriconazole Microbiological efficacy was determined as the Minimal Inhibitory Concentration.
The bactericidal activities of Examples 1, 10 and 13 against multiresistant C. glabrata isolates are shown below in Table 18.

[2] = system: Pseudomonas aeruginosa AGR 18 and MR23 multiresistant; assay: MIC against multi-drug resistant P. aeruginosa; format: cell-based
Description: as §1, §2
The bactericidal activities of Examples 1, 10 and 13 against multiresistant P. aeruginosa isolates are shown below in Table 17.

[3] = system: Vancomycin resistant S. aureus (VRSA); assay: MIC by broth macrodilution against S. aureus isolates; format: cell-based; details: Staphylococcus aureus
Description: In this example, the efficacy of the inventive preparations was tested against Vancomycin resistant S. aureus (VRSA)
The MICs were determined using a broth macrodilution method with cation-adjusted Mueller-Hinton broth II (Becton Dickinson) at standard inoculum (10^5 cfu/mL) following the CLSI recommendations. The cultures used in this study were bacterial clinical isolates from human infections.

[4] = system: MSSA strain ATCC 29213; assay: MIC by broth macrodilution against S. aureus isolates, MSSA strain; format: cell-based; details: Staphylococcus aureus, read-out: MSSA strain MIC
Text: The cultures used in this study were bacterial clinical isolates from human infections.

[5] = system: A. fumigatus; assay: MIC by broth macrodilution, Example 22; format: cell-based, Aspergillus fumigatus; details: CLSI
Description: (§3) The potency of Example Nos. 1, 5 and 10 were examined against bacterial isolates from patients with cystic fibrosis. The MICs values were determined by the broth macrodilution method according to the CLSI guideline. For the in vivo studies, 8-week-old C57BL/6 mice were intranasally infected with P. aeruginosa MR-6 (2×10^7 cfu/mouse)+A. fimigatus (6×10^6 cfu/mouse).

[6] = system: P. aeruginosa; assay: MIC by broth macrodilution, isolates from patients with cystic fibrosis, Example 22; format: cell-based; details: Pseudomonas aeruginosa, CLSI, read-out: MIC against P. aeruginosa
Description: as §3

[7] = system: A. fumigatus; assay: Animal model of respiratory infection, mortality; format: in vivo, C57BL/6 mice; details: mice, intranasal infection; treatment 12 h after infection by intranasal inhalation at 32×MIC
Description: (§4) In this example the efficacy of the preparations were tested against an animal model of mixed respiratory infection.
as §3

[8] = system: P. aeruginosa; assay: Animal model of respiratory infection, mortality; format: in vivo, C57BL/6 mice; details: mice, intranasal infection; treatment 12 h after infection by intranasal inhalation at 32×MIC
Description: as §4, §3

[9] = system: P. aeruginosa + A. fumigatus; assay: Animal model of mixed respiratory infection, mortality; format: in vivo, C57BL/6 mice; details: mice, intranasal infection; treatment 12 h after infection by intranasal inhalation at 32×MIC
Description: as §4, §3

[10] = system: Ehrlich solid tumor; assay: Ehrlich solid tumor, combined effect with anticancer drugs; format: in vivo; details: combination study, 0.2 ml of 0.01% solution intraperitoneally
Description: In this experiment, a model of continuous Ehrlich solid tumor was used to study combined effect of claimed product with anticancer drugs. The drugs were administered simultaneously with the tumor transplantation (0.2 ml of 0.01% solution) intraperitoneally. The control animals received water (used as solvent for the drugs tested).

[11] = VT-A-199, read-out: VRSA strain MIC
[12] = VT-V-18, read-out: VRSA strain MIC
[13] = VT-V-25, read-out: VRSA strain MIC

Which results are given for C[C@@H]1[C@H](O)[C@@H](C)/C=C/C=C/C=C/C=C/C=C/C=C/C=C/[C@H](O[C@@H]2O[C@H](C)[C@@H](O)[C@H](N)[C@@H]2O)C[C@@H]2O[C@](O)(C[C@@H](O)C[C@@H](O)[C@H](O)CC[C@@H](O)C[C@@H](O)CC(=O)O[C@H]1C)C[C@H](O)[C@H]2C(=O)O [AMB]?
Minimal inhibitory concentration ([1]; C. glabrata CG1514053): 4 µg/mL (≈ 4.33 µM); Minimal inhibitory concentration ([1]; C. glabrata VT18): 8 µg/mL (≈ 8.66 µM)

What does the source list for NCC[C@H](O)C(=O)N[C@@H]1C[C@H](N)[C@@H](O[C@H]2O[C@H](CN)[C@@H](O)[C@H](O)[C@H]2O)[C@H](O)[C@H]1O[C@H]1O[C@H](CO)[C@@H](O)[C@H](N)[C@H]1O [Amikacin]?
MIC ([2]; P. aeruginosa strain AGR 18): 128 µg/mL (≈ 219 µM); MIC ([2]; P. aeruginosa strain MR23): 256 µg/mL (≈ 437 µM)

How did the MIC [3, 11] turn out when CC1(C)S[C@@H]2[C@H](NC(=O)[C@H](N)c3ccccc3)C(=O)N2[C@H]1C(=O)O [Ampicillin] was run?
Its MIC is 16 µg/mL (≈ 45.8 µM).

What about the MIC [3, 12] of the same molecule?
The MIC was 64 µg/mL (≈ 183 µM).

And the MIC [3, 13]?
The MIC was 32 µg/mL (≈ 91.6 µM).

What about the MIC ([4]; ATCC 29213) of the same molecule?
The MIC was 0.25 µg/mL (≈ 0.715 µM).

Which “MIC against A. fumigatus” value [5] does the source give for C[C@H]1[C@H](NC(=O)/C(=N\OC(C)(C)C(=O)O)c2csc(N)n2)C(=O)N1S(=O)(=O)O [Aztreonam, aztreonam] here?
Its value is “not active”.

What about the MIC [6] of the same molecule?
The MIC was 64 µg/mL (≈ 147 µM).

What about the “Percent mortality 96 h post infection, A. fumigatus” value [7] of the same molecule?
Its value is 30%.

What about the “Percent mortality 96 h post infection, P. aeruginosa” value [8] of the same molecule?
The value was 20%.

What about the “Percent mortality 96 h post infection, P. aeruginosa + A. fumigatus” value [9] of the same molecule?
Its value is 60%.

What about the MIC ([2]; P. aeruginosa strain AGR 18) of the same molecule?
Its MIC is 32 µg/mL (≈ 73.5 µM).

What about the MIC ([2]; P. aeruginosa strain MR23) of the same molecule?
Its MIC is 128 µg/mL (≈ 294 µM).

How did the MIC ([2]; P. aeruginosa strain AGR 18) turn out when CC(C)(O/N=C(\C(=O)N[C@@H]1C(=O)N2C(C(=O)[O-])=C(C[n+]3ccccc3)CS[C@H]12)c1csc(N)n1)C(=O)O [Ceftazidime] was run?
Its MIC is 32 µg/mL (≈ 58.5 µM).

What about the MIC ([2]; P. aeruginosa strain MR23) of the same molecule?
The MIC was 32 µg/mL (≈ 58.5 µM).

N.N.[Cl][Pt][Cl] [Cisplatin] was tested. Which “Tumor size, 7 days after transplantation” value ([10]; 7 days) did it give?
The value was 72.4 mm^3.

What about the “Tumor size, 11 days after transplantation” value ([10]; 11 days) of the same molecule?
The value was 180.7 mm^3.

And the “Tumor size, 14 days after transplantation” value ([10]; 14 days)?
Its value is 243.3 mm^3.

What about the “Tumor size, 18 days after transplantation” value ([10]; 18 days) of the same molecule?
Its value is 345.8 mm^3.

And the “Tumor size, 22 days after transplantation” value ([10]; 22 days)?
Its value is 548.2 mm^3.

And the “Tumor size, 25 days after transplantation” value ([10]; 25 days)?
The value was 607.7 mm^3.

For CCC[C@@H]1C[C@@H](C(=O)N[C@@H]([C@H]2O[C@H](SC)[C@H](O)[C@@H](O)[C@H]2O)[C@H](C)Cl)N(C)C1 [Clindamycin], which MIC [3, 11] is on record?
Its MIC is 2 µg/mL (≈ 4.71 µM).

What about the MIC [3, 12] of the same molecule?
Its MIC is 4 µg/mL (≈ 9.41 µM).

What about the MIC [3, 13] of the same molecule?
Its MIC is 2 µg/mL (≈ 4.71 µM).

What about the MIC ([4]; ATCC 29213) of the same molecule?
The MIC was 0.125 µg/mL (≈ 0.294 µM).

With C[C@@H](O)[C@H]1C(=O)N2C(C(=O)O)=C(S[C@@H]3CN[C@H](C(=O)N(C)C)C3)[C@H](C)[C@H]12 [Meropenem] as the molecule, how does the MIC [3, 11] read?
The MIC was 128 µg/mL (≈ 334 µM).

And the MIC [3, 12]?
The MIC was 32 µg/mL (≈ 83.4 µM).

And the MIC [3, 13]?
Its MIC is 128 µg/mL (≈ 334 µM).

And the MIC ([4]; ATCC 29213)?
The MIC was 0.125 µg/mL (≈ 0.326 µM).

Which results are given for CCN1CCN(C(=O)N[C@@H](C(=O)N[C@@H]2C(=O)N3[C@@H]2SC(C)(C)[C@@H]3C(=O)O)c2ccccc2)C(=O)C1=O [Piperacillin]?
MIC ([2]; P. aeruginosa strain AGR 18): > 256 µg/mL; MIC ([2]; P. aeruginosa strain MR23): 256 µg/mL (≈ 495 µM)

Which “MIC against A. fumigatus” value [5] does the source give for NC[C@H]1O[C@H](O[C@H]2[C@H](O)[C@@H](O[C@H]3O[C@H](CO)[C@@H](O)[C@H](N)[C@H]3O)[C@H](N)C[C@@H]2N)[C@H](N)C[C@@H]1O [Tobramycin, tobramycin] here?
The value was “not active”.

What about the MIC [6] of the same molecule?
Its MIC is 16 to 32 µg/mL (≈ 34.2 to 68.4 µM).

And the “Percent mortality 96 h post infection, A. fumigatus” value [7]?
The value was 40%.

What about the “Percent mortality 96 h post infection, P. aeruginosa” value [8] of the same molecule?
Its value is 20%.

And the “Percent mortality 96 h post infection, P. aeruginosa + A. fumigatus” value [9]?
Its value is 50%.

What about the MIC ([2]; P. aeruginosa strain AGR 18) of the same molecule?
Its MIC is 32 µg/mL (≈ 68.4 µM).

And the MIC ([2]; P. aeruginosa strain MR23)?
The MIC was 32 µg/mL (≈ 68.4 µM).

What does the source list for C[C@@H](c1ncncc1F)[C@](O)(Cn1cncn1)c1ccc(F)cc1F [VRZ]?
Minimal inhibitory concentration ([1]; C. glabrata CG1514053): 8 µg/mL (≈ 22.9 µM); Minimal inhibitory concentration ([1]; C. glabrata VT18): 4 µg/mL (≈ 11.5 µM)

With CN[C@H](CC(C)C)C(=O)N[C@H]1C(=O)N[C@@H](CC(N)=O)C(=O)N[C@H]2C(=O)N[C@H]3C(=O)N[C@H](C(=O)N[C@H](C(=O)O)c4cc(O)cc(O)c4-c4cc3ccc4O)[C@H](O)c3ccc(c(Cl)c3)Oc3cc2cc(c3O[C@@H]2O[C@H](CO)[C@@H](O)[C@H](O)[C@H]2O[C@H]2C[C@](C)(N)[C@H](O)[C@H](C)O2)Oc2ccc(cc2Cl)[C@H]1O [Vancomycin] as the molecule, how does the MIC ([3]; read-out: VRSA strain MIC, VT-A-199) read?
The MIC was 16 µg/mL (≈ 11 µM).

What about the MIC ([3]; read-out: VRSA strain MIC, VT-V-18) of the same molecule?
Its MIC is 16 µg/mL (≈ 11 µM).

What about the MIC ([3]; read-out: VRSA strain MIC, VT-V-25) of the same molecule?
The MIC was 1 µg/mL (≈ 0.69 µM).

And the MIC [4]?
The MIC was 0.5 µg/mL (≈ 0.345 µM).
